The values that follow come from patent publication US20250144050A1, “AMINOTHIOL-CONJUGATES, COMPOSITIONS, AND METHODS OF USE THEREOF” (THE BURLINGTON HC RESEARCH GROUP, INC., priority 2021, published 2025).

Read-outs that look alike come from different tables or passages of the source. Where only a bound is given, the exact number is not on record here.

One series concerns human cancer cell lines. As to the kind of experiment: CyQUANT cell viability assay, 48-hour exposure, panel averages. Conditions: for fold greater cytostatic effect than amifostine: HCC38, PC3, SKOV3, TOV21G (amifostine GI50 <100 μM); for fold more potent than amifostine as a cytostatic agent, averaging: averages of dose-response metrics across panel. As for the experimental part:
(§1) After drug treatments, fluorescence readings from 96-well plates were obtained using the CyQUANT dye and compared to standard curves for each cell line to determine cell viability. […] Trypan blue exclusion was used to estimate cell numbers in a few pilot experiments and was thereafter applied to confirm cell death.
(§2) A series of experiments was conducted to assess the relative efficacy of 4SP65, 1LP65, and amifostine as single agents in the same human cancer cell lines. First, the effectiveness of 4SP65 was tested against 15 cancer cell lines derived from seven tissues. […] The effectiveness of 0 to ≤500 μM amifostine was tested in sets of cancer cell lines reported to have either medium, high, or no expression of alkaline phosphatase.
(§3) Trans. R Soc. Lond. […] Using cell numbers based on fluorescence measurements and standard curves [time zero, (Tz), control growth, (C), and test growth in the presence of drug at five or more concentration levels (Ti)], the percentage growth was calculated at each drug concentration level. The percentage of growth inhibition was calculated as follows:
(§4) The LC50/99 was calculated using Equation 2=−50 and Eq. 2=−99, respectively. […] For NHMECs, the relationships between drug exposure levels and fluorescence units were used to define dose-response metrics. The selectivity index (SI) values for individual drug treatments were calculated as IC50 levels in NHMECs divided by the IC50 values in cancer cell lines.

The subject of another series is MDA-MB-231 cells. Description: CyQUANT cell viability assay, 48-hour exposure. It is filed as cell-based, human. As to the method: as §1, §2, §3, §4
Another series is described as follows: Solubility testing. The format is physicochemical. As for the experimental part: (§5) The solubility of 4SP65 was tested in de-ionized water, PBS, DMSO, and RPMI or DMEM base medium with and without FBS. […] The difference in the starting weight of drug placed into solvent minus the weight of the residue after drying on a vacuum pump was considered to represent the amount of drug that went into solution. The amount of drug that was dissolved at a given time ranged from 40 to 61%, averaging 49.7±8.1% (SD). The weight of the 4SP65 in solution was then used for diluting the drug to concentrations of 200 or 400 μM in supplemented RPMI or DMEM/F12 medium for routine treatment of cells. The dried residue was not used in the in vitro drug efficacy studies. […] However, unintended topical entanglements between polymer chains of multi-arm PEG-thiol molecules without disulfide formation have been reported (Tang and Olsen, “Controlling Topological Entanglement in Engineered Protein Hydrogels with a Variety of Thiol Coupling Chemistries,” Front. Chem. 2:23 (2014), which is hereby incorporated by reference in its entirety). Aliquots of 4SP65 dissolved in FBS enriched medium has remained stable for >6 months while remnants of the original viscous polymer have maintained stability without any apparent loss of activity when stored for 60 months at −20° C.
(§6) The boc deprotected aminothiol conjugated to m-PEG6-thiol was dried on a vacuum pump overnight to yield a viscous oil that on analysis gave rise to spectra corresponding to 1LP65 as a di-trifluroacetic acid salt at a MW of 672.87 Da (FIG. 15), or a MW of 483 once dissolved in solution. As such, 1LP65 is soluble 100% DMSO or aqueous solution. However, the bulk of the product was dissolved at 40 mM in DMSO and stored in aliquots at −80° C. for future use once by further dilution in DMSO and then final dilution in medium for treatment of normal human epithelium and human cancer cell lines at working solutions of 4 mM or 400 μM drug. 1LP65 has maintained stability for six months in frozen aliquots but should be stable in DMSO at −80° C. for two to three years based upon recommended storage conditions for cystamine dihydrochloride (Selleck Chemical product information), an analogous 225 Da compound with a disulfide bond and amine groups like 1LP65.

The nature of a further series: Storage stability. The format is physicochemical. As for the experimental part:
as §5
as §6, with “1LP65 has maintained stability for six months in frozen aliquots but should be stable in DMSO at −80° C. for two to three years based upon recommended storage conditions for cystamine dihydrochloride (Selleck Chemical product information), an analogous 225 Da compound with a disulfide bond and amine groups like 1LP65.” left out

The mark [1] stands for this setting: 48-hour, 15 cancer cell lines (4SP65), 11 (1LP65).

Broadly, the GI50 is the concentration at which growth is held to half of that of the control.

For 4-star PEG-S-S-WR1065 [4SP65], in the series with human cancer cell lines (4SP65 versus 1LP65), the “fold greater potency than predicted by ratio of four vs one WR1065/molecule” value is around 2.5 fold. In addition, in the series with human cancer cell lines (setting [1]), the “LC99, average across cell lines” value was 11.2 µM; the “LC99, range” value is 3.0 to 21.1 µM; the “TGI, average across cell lines” value was determined as 6.8 ± 1.1 µM; the “TGI, range” value fell in the range of 2.0 to 16.3 µM. In addition, in the series on human cancer cell lines, the “fold greater cytostatic effect than amifostine” value was 38 fold and the “fold more potent than amifostine as a cytostatic agent, averaging” value was 55 fold. For the same compound, the “fold more potent than 1LP65, averaging” value with human cancer cell lines (across dose-response metrics) worked out at 10.4 fold. In addition, the GI50 in the series with human cancer cell lines (read-out: GI50, average across cell lines, 48-hour, 15 cancer cell lines (4SP65), 11 (1LP65)) stood at 4.1 ± 0.8 µM. The GI50 with human cancer cell lines (read-out: average GI50, HCC38, PC3, SKOV3, and TOV21G) was found to be 1.7 µM. In the series on MDA-MB-231 cells (IC50 of 76 in most sensitive NHMEC strain / IC50 in MDA-MB-231), this compound returned a selectivity index above 16. The “highest level that could be tested based upon maximum solubility in aqueous medium” value in the series “Solubility testing” (aqueous medium) amounted to 150 µM. In “Solubility testing” (aqueous solvents/medium), the “amount of drug that was dissolved, averaging (SD)” value worked out at 49.7±8.1%. In “Solubility testing” (de-ionized water, PBS, DMSO, RPMI or DMEM base medium with and without FBS), the solubility result is recorded as “partially soluble in all media evaluated except DMSO”. The “concentration above which a hydrogel forms” value in “Solubility testing” (in medium) is “above 300 micromolar”. In addition, the time remained stable in “Storage stability” (dissolved in FBS enriched medium) is on record as above 6 months. The “time stability maintained without apparent loss of activity” value in the series “Storage stability” (original viscous polymer stored at −20° C.) was determined as 60 months.

For `COCCOCCOCCOCCOCCOCCSSCCNCCCN` [1LP65, m-PEG6-S-S-WR1065], the “LC99, average across cell lines” value in the series on human cancer cell lines (setting [1]) was determined as 126 ± 15.8 µM. Also, the “LC99, range” value with human cancer cell lines (setting [1]) lay within 83.5 to 234 µM. Moreover, in the series with human cancer cell lines (setting [1]), the “TGI, average across cell lines” value was 69.3 ± 10.3 µM. Also, the “TGI, range” value in the series with human cancer cell lines (setting [1]) is 32.7 to 126 µM. Also, the “fold greater cytostatic effect than amifostine” value with human cancer cell lines is given as 2.1 fold. For the same compound, the GI50 in the series with human cancer cell lines (Homo sapiens, 48 h, read-out: GI50, average across cell lines, 48-hour, 15 cancer cell lines (4SP65), 11 (1LP65)) was 41.2 ± 5.4 µM; with human cancer cell lines (Homo sapiens, 48 h, read-out: GI50, range for individual cell lines, 48-hour, 15 cancer cell lines (4SP65), 11 (1LP65)) it was 21.3 to 77.7 µM; in the series on human cancer cell lines (Homo sapiens, read-out: average GI50, HCC38, PC3, SKOV3, and TOV21G), 30.4 µM; in the series on MDA-MB-231 cells (Homo sapiens, MDA-MB-231 cells, 48 hours) it was 41.8 µM. The CC50 is 94.6 ± 12.8 µM with human cancer cell lines (Homo sapiens, 48 h, read-out: LC50, average across cell lines) and 51.3 to 157 µM in the series with human cancer cell lines (Homo sapiens, 48 h, read-out: LC50, range). Besides, the “fold more potent than amifostine as a cytostatic agent, averaging” value in the series on human cancer cell lines came to 5.9 fold. For the same compound, in “Solubility testing” (100% DMSO or aqueous solution), the solubility result was “soluble”. For the same compound, the time stability maintained result in the series “Storage stability” (frozen aliquots, 40 mM in DMSO at −80° C.) is “six”.
